Experimental data as given in PubChem BioAssay AID330 (DTP/NCI, 2004).
Toxic doses and inconclusive results are not listed.

Test system: P388 leukemia ip, CD2F1 mice, survival T/C
Experiment: NCI In Vivo Anticancer Drug Screen. Data for tumor model P388 Leukemia (intraperitoneal) in CD2F1 (CDF1) mice
Details: endpoint: median survival time, higher = longer survival
How it was run: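 Mice carrying the transplanted tumor received test compound or vehicle. Survival was recorded in each group, and the value is the treated-group measurement divided by that of the vehicle-treated control group.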

[1] = dose: 60.0 mg/kg/injection, schedule: Q01DX005 (ip), vehicle: saline with Tween-80
[2] = dose: 120.0 mg/kg/injection, schedule: Q01DX005 (ip), vehicle: saline with Tween-80

With COCC1(C)CCCC2(C)C1CCC1(O)CCCCC12O (stereo not drawn) the T/C (dose: 100.0 mg/kg/injection, schedule: Q01DX001 (ip), vehicle: saline) was 100 % of control, the T/C (dose: 200.0 mg/kg/injection, schedule: Q01DX001 (ip), vehicle: saline) was 100 % of control and the T/C (dose: 400.0 mg/kg/injection, schedule: Q01DX001 (ip), vehicle: saline) was 108 % of control.

For COC1=C(C)C(=O)C2=C(C1=O)C1C3CC4=C(C(=O)C(OC)=C(C)C4=O)C(CNC(=O)C(C)=O)N3C(C#N)C(C2)N1C (stereo not drawn), the T/C (dose: 0.06 mg/kg/injection, schedule: Q01DX009 (ip), vehicle: Klucel (hydroxypropylcellulose) (HPC)) was 122 % of control, the T/C (dose: 0.31 mg/kg/injection, schedule: Q01DX009 (sc), vehicle: Klucel (hydroxypropylcellulose) (HPC)) was 107 % of control and the T/C (dose: 0.62 mg/kg/injection, schedule: Q01DX009 (ip), vehicle: Klucel (hydroxypropylcellulose) (HPC)) was 160 % of control. For the same molecule, the T/C (dose: 0.62 mg/kg/injection, schedule: Q01DX009 (sc), vehicle: Klucel (hydroxypropylcellulose) (HPC)) was 115 % of control, the T/C (dose: 1.0 mg/kg/injection, schedule: Q01DX009 (ip), vehicle: saline) was 156 % of control and the T/C (dose: 1.25 mg/kg/injection, schedule: Q01DX009 (ip), vehicle: Klucel (hydroxypropylcellulose) (HPC)) was 107 % of control. The T/C (dose: 1.25 mg/kg/injection, schedule: Q01DX009 (sc), vehicle: Klucel (hydroxypropylcellulose) (HPC)) was 118 % of control and the T/C (dose: 2.0 mg/kg/injection, schedule: Q01DX009 (ip), vehicle: saline) was 87 % of control.

COC(=O)c1c(O)c(OC)c(-c2ccccc2)[nH]c1=O was tested, and the T/C [1] was 89 % of control and the T/C [2] was 89 % of control.

For CN(C)CCNc1ccc2cc3ccc(N=Nc4ccc(N(C)C)cc4)cc3nc2c1, the T/C (dose: 100.0 mg/kg/injection, schedule: Q04DX003 (ip), vehicle: saline with Tween-80) was 100 % of control, the T/C (dose: 200.0 mg/kg/injection, schedule: Q04DX003 (ip), vehicle: saline with Tween-80) was 101 % of control and the T/C (dose: 400.0 mg/kg/injection, schedule: Q04DX003 (ip), vehicle: saline with Tween-80) was 103 % of control.

For Cc1ccc(C2(O)c3ccccc3N=NN2C)cc1 (stereo not drawn), the T/C (dose: 50.0 mg/kg/injection, schedule: Q01DX005 (ip), vehicle: saline with Tween-80) was 100 % of control, the T/C (dose: 100.0 mg/kg/injection, schedule: Q01DX005 (ip), vehicle: saline with Tween-80) was 100 % of control and the T/C (dose: 200.0 mg/kg/injection, schedule: Q01DX005 (ip), vehicle: saline with Tween-80) was 96 % of control.

With CCCCCCCCCCN(CCCCCCCCCC)C1CC(OC2CC(O)(C(C)=O)Cc3c(O)c4c(c(O)c32)C(=O)c2c(OC)cccc2C4=O)OC(C)C1O (stereo not drawn) the T/C (dose: 3.13 mg/kg/injection, schedule: Q01DX009 (ip), vehicle: distilled water + Tween-80) was 113 % of control, the T/C (dose: 4.7 mg/kg/injection, schedule: Q04DX003 (ip), vehicle: other) was 104 % of control and the T/C (dose: 6.25 mg/kg/injection, schedule: Q01DX009 (ip), vehicle: distilled water + Tween-80) was 96 % of control. The T/C (dose: 9.4 mg/kg/injection, schedule: Q04DX003 (ip), vehicle: other) was 104 % of control, the T/C (dose: 12.5 mg/kg/injection, schedule: Q01DX009 (ip), vehicle: distilled water + Tween-80) was 102 % of control and the T/C (dose: 18.8 mg/kg/injection, schedule: Q04DX003 (ip), vehicle: other) was 112 % of control. For the same molecule, the T/C (dose: 37.5 mg/kg/injection, schedule: Q04DX003 (ip), vehicle: other) was 105 % of control and the T/C (dose: 75.0 mg/kg/injection, schedule: Q04DX003 (ip), vehicle: other) was 103 % of control.

C=C(C)C(=O)NC(Cc1cnc[nH]1)C(=O)O (stereo not drawn) was tested, and the T/C (dose: 50.0 mg/kg/injection, schedule: Q01DX009 (ip), vehicle: saline) was 106 % of control, the T/C (dose: 100.0 mg/kg/injection, schedule: Q01DX009 (ip), vehicle: saline) was 107 % of control and the T/C (dose: 200.0 mg/kg/injection, schedule: Q01DX009 (ip), vehicle: saline) was 107 % of control.

With O=[N+]([O-])c1ccc(SNc2ccc(NSc3ccc([N+](=O)[O-])cc3)cc2)cc1 the T/C (dose: 12.5 mg/kg/injection, schedule: Q01DX001 (ip), vehicle: saline with Tween-80) was 95 % of control, the T/C (dose: 25.0 mg/kg/injection, schedule: Q01DX001 (ip), vehicle: saline with Tween-80) was 100 % of control and the T/C (dose: 50.0 mg/kg/injection, schedule: Q01DX001 (ip), vehicle: saline with Tween-80) was 100 % of control.

CC1(C)CC(OP(=O)(OC2CC(C)(C)N(O)C(C)(C)C2)OC2CC(C)(C)N(O)C(C)(C)C2)CC(C)(C)N1O was tested, and the T/C (dose: 100.0 mg/kg/injection, schedule: Q04DX002 (ip), vehicle: Klucel (hydroxypropylcellulose) (HPC)) was 92 % of control, the T/C (dose: 200.0 mg/kg/injection, schedule: Q04DX002 (ip), vehicle: Klucel (hydroxypropylcellulose) (HPC)) was 99 % of control and the T/C (dose: 400.0 mg/kg/injection, schedule: Q04DX002 (ip), vehicle: Klucel (hydroxypropylcellulose) (HPC)) was 104 % of control.

CC(O)/C(=N\Nc1ccccc1)c1nc2ccccc2[nH]c1=O (stereo not drawn) was tested, and the T/C (dose: 30.0 mg/kg/injection, schedule: Q01DX005 (ip), vehicle: saline with Tween-80) was 92 % of control, the T/C [1] was 89 % of control and the T/C [2] was 88 % of control.

With CN1C(=O)Cc2ccccc21 the T/C (dose: 25.0 mg/kg/injection, schedule: Q01DX009 (ip), vehicle: Klucel (hydroxypropylcellulose) (HPC)) was 99 % of control, the T/C (dose: 50.0 mg/kg/injection, schedule: Q01DX009 (ip), vehicle: Klucel (hydroxypropylcellulose) (HPC)) was 101 % of control and the T/C (dose: 100.0 mg/kg/injection, schedule: Q01DX009 (ip), vehicle: Klucel (hydroxypropylcellulose) (HPC)) was 105 % of control. The T/C (dose: 200.0 mg/kg/injection, schedule: Q01DX009 (ip), vehicle: Klucel (hydroxypropylcellulose) (HPC)) was 99 % of control.
